Results reported in patent publication US7612087B2, “Heterocyclic compounds as inhibitors of beta-lactamases” (Novexel, priority 2002, dated 2009).
Where two headings read alike, the source gives them in different places.

Legend:
β-lactamase P99 = target: T1, β-lactamase P99 (Enterobacter cloacae, UniProt P05364); assay: biochemical
T1 construct: The β-lactamases are isolated from bacterial strains which are resistant to penicillins and cephalosporins; endogenous in cells; host or cells: Enterobacter cloacae 293HT6 (natural producer; French-press lysate, 100,000 g supernatant)
Experimental: (§1) A. Preparation of the β-lactamases Tem-1 and P99
(§2) The β-lactamases are isolated from bacterial strains which are resistant to penicillins and cephalosporins (Tem1 and P99 are produced by E.coli 250HT21 and E.Cloacae 293HT6 respectively).
(§3) The bacteria are cultured at 37° C. in heart-brain culture at 37 g/l (DIFCO). They are harvested at the end of the exponential phase, cooled down and centrifuged. The bacterial pellets are taken up in sodium phosphate buffer 50 mM, pH 7.0 and centrifuged again. The bacteria are taken up in two volumes of the same buffer and lyzed using a French-Press maintained at 4° C. After centrifugation for 1 hour at 100,000 g, at 4° C., the supernatants containing the soluble fraction of the bacterial extracts are recovered and frozen at −80° C.
(§4) The method uses Nitrocefin (OXOID), cephalosporin chromogene as substrate, of which the product hydrolyzed by the B-lactamases is red and absorbs at 485 nm. Beta-lactamase activity is determined kinetically by measurement of the absorbance variation at 485 nm resulting from the hydrolysis of the substrate using a plate spectrophotometer (Spectra Max More Molecular Devices). The experiments are carried out at 37° C. The quantity of enzyme was normalized and the measurements are carried out at initial speed.
(§5) Two measurements were carried out, without preincubation and with preincubation of the enzyme and inhibitor (5 mn), in order to test the irreversibility of the reaction. The products are tested at 6 or 8 concentrations in duplicate. The reaction mixture contains 100 μM of Nitrocefin and 50 mM sodium phosphate buffer pH7.0.
(§6) The hydrolysis speeds are measured with and without inhibitor. The concentration of inhibitor which inhibits by 50% the hydrolysis reaction of Nitrocefin by the enzyme (CI50) is determined. The data is processed using GraFit software (Erathycus Software).

E. coli 250CF1 (Tem3) = assay: microbe, parasite or virus in culture; type: cell-based; conditions: compound at 5 mg/l, 24 hours at 37° C.; for MIC of Cefotaxime in combination with the compound: Trial 4, 250CF1 E. coli Tem3; for MIC of Piperacillin in combination with the compound: Trial 4, 250CF1 Tem3
Experimental: (§7) The operation is carried out as follows, using the so-called micro-dilution in liquid medium method.
(§8) A series of concentrations of the β-lactamine is prepared in the presence of a constant concentration (5 mg/l) of the product to be studied, each is then seeded with various bacterial strains.
(§9) After incubation for 24 hours in a heating chamber at 37° C., the growth inhibition is evaluated by the absence of any bacterial development, which allows the minimal inhibitory concentrations (MIC) for each strain to be determined, expressed in milligrams/l.

[1] = tested on: E. cloacae 293HT6 (Class C); assay: MIC, micro-dilution in liquid medium, β-lactamine with product at 5 mg/l; type: cell-based; conditions: compound at 5 mg/l, 24 hours at 37° C.; for MIC of Piperacillin in combination with the compound: Trial 9, 293HT6 Class; for MIC of Cefotaxime in combination with the compound: Trial 9, 293HT6 E. cloacae Class C
Experimental: as §7, §8, §9

E. coli 250BE1 (SHV4) = assay: as above; type: cell-based; conditions: compound at 5 mg/l, 24 hours at 37° C.; for MIC of Cefotaxime in combination with the compound: Trial 7, 250BE1 E. coli SHV4; for MIC of Piperacillin in combination with the compound: Trial 7, 250BE1 SHV4
Experimental: as §7, §8, §9

E. coli 250HT21 (Tem1) = assay: as above; type: cell-based; conditions: compound at 5 mg/l, 24 hours at 37° C.; for MIC of Cefotaxime in combination with the compound: Trial 2, 250HT21 E. coli Tem1; for MIC of Piperacillin in combination with the compound: Trial 2, 250HT21 Tem1
Experimental: as §7, §8, §9

E. coli 250HT22 (Tem2) = assay: as above; type: cell-based; conditions: compound at 5 mg/l, 24 hours at 37° C.; for MIC of Cefotaxime in combination with the compound: Trial 3, 250HT22 E. coli Tem2; for MIC of Piperacillin in combination with the compound: Trial 3, 250HT22 Tem2
Experimental: as §7, §8, §9

[2] = tested on: E. coli 250HT23 (Class D); assay: as above; type: cell-based; conditions: compound at 5 mg/l, 24 hours at 37° C.; for MIC of Piperacillin in combination with the compound: Trial 8, 250HT23 Class D; for MIC of Cefotaxime in combination with the compound: Trial 8, 250HT23 E. coli Class D
Experimental: as §7, §8, §9

E. coli 250HT26 (SHV1) = assay: as above; type: cell-based; conditions: compound at 5 mg/l, 24 hours at 37° C.; for MIC of Cefotaxime in combination with the compound: Trial 6, 250HT26 E. coli SHV1; for MIC of Piperacillin in combination with the compound: Trial 6, 250HT26 SHV1
Experimental: as §7, §8, §9

E. coli 250SJ1 (Tem7) = assay: as above; type: cell-based; conditions: compound at 5 mg/l, 24 hours at 37° C.; for MIC of Cefotaxime in combination with the compound: Trial 5, 250SJ1 E. coli Tem7; for MIC of Piperacillin in combination with the compound: Trial 5, 250SJ1 Tem7
Experimental: as §7, §8, §9

[3] = tested on: P. aeruginosa 391HT7 (PSE); assay: as above; type: cell-based; conditions: compound at 5 mg/l, 24 hours at 37° C.; for MIC of Cefotaxime in combination with the compound: Trial 11, 391HT7 P. aeruginosa PSE; for MIC of Piperacillin in combination with the compound: Trial 11, 391HT7 PSE
Experimental: as §7, §8, §9

[4] = tested on: P. aeruginosa 391HT8 (PSE); assay: as above; type: cell-based; conditions: compound at 5 mg/l, 24 hours at 37° C.; for MIC of Cefotaxime in combination with the compound: Trial 12, 391HT8 P. aeruginosa PSE; for MIC of Piperacillin in combination with the compound: Trial 12, 391HT8 PSE
Experimental: as §7, §8, §9

[5] = tested on: S. aureus 011GO66 (PeniR); assay: as above; type: cell-based; conditions: compound at 5 mg/l, 24 hours at 37° C.; for MIC of Cefotaxime in combination with the compound: Trial 1, 011GO66 S. aureus PeniR; for MIC of Piperacillin in combination with the compound: Trial 1, 011GO66 peniR
Experimental: as §7, §8, §9

Serratia 301HT6 = assay: as above; type: cell-based; conditions: compound at 5 mg/l; Trial 10, 301HT6 Serratia; 24 hours at 37° C.
Experimental: as §7, §8, §9

β-lactamase TEM1 = target: T2, β-lactamase TEM1 (Escherichia coli, UniProt P62593); assay: Inhibition of isolated β-lactamase Tem-1 (Nitrocefin hydrolysis); type: biochemical, E.coli 250HT21; conditions: 100 μM Nitrocefin, 50 mM sodium phosphate buffer pH7.0, 37° C.
T2 construct: The β-lactamases are isolated from bacterial strains which are resistant to penicillins and cephalosporins; endogenous in cells; host or cells: E. coli 250HT21 (natural producer; French-press lysate, 100,000 g supernatant)
Experimental: as §1, §2, §3, §4, §5, §6

[6] = 100 μM Nitrocefin, 50 mM sodium phosphate buffer pH7.0, 37° C., read-out: IC50 nM/P99

T1 sequence (P05364 21-381): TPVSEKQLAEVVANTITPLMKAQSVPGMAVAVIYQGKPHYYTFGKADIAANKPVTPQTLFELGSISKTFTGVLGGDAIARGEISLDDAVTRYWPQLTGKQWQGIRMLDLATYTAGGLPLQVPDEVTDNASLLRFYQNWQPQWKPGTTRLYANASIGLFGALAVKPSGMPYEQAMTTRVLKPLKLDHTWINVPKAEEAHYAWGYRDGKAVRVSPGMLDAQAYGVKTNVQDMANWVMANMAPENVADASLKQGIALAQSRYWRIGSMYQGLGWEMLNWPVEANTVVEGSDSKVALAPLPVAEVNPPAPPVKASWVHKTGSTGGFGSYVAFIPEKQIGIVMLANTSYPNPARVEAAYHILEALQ
T2 sequence (P62593 24-286 limits assumed): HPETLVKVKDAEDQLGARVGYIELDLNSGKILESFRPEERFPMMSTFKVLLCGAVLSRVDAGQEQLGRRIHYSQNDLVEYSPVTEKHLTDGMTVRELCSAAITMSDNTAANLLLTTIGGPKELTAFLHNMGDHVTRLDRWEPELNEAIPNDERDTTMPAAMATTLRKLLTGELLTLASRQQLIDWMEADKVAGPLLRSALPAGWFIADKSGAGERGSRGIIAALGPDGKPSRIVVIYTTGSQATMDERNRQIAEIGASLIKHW

Structure (SMILES) | MIC of Cefotaxime in combination with the compound (E. coli 250CF1 (Tem3)) | MIC of Piperacillin in combination with the compound (E. coli 250CF1 (Tem3)) [µg/mL] | MIC of Piperacillin in combination with the compound [1] [µg/mL] | MIC of Cefotaxime in combination with the compound [1] | MIC of Cefotaxime in combination with the compound (E. coli 250BE1 (SHV4)) | MIC of Piperacillin in combination with the compound (E. coli 250BE1 (SHV4)) [µg/mL] | MIC of Cefotaxime in combination with the compound (E. coli 250HT21 (Tem1)) | MIC of Piperacillin in combination with the compound (E. coli 250HT21 (Tem1)) [µg/mL] | MIC of Cefotaxime in combination with the compound (E. coli 250HT22 (Tem2)) | MIC of Piperacillin in combination with the compound (E. coli 250HT22 (Tem2)) [µg/mL] | MIC of Piperacillin in combination with the compound [2] [µg/mL] | MIC of Cefotaxime in combination with the compound [2] | MIC of Cefotaxime in combination with the compound (E. coli 250HT26 (SHV1)) | MIC of Piperacillin in combination with the compound (E. coli 250HT26 (SHV1)) [µg/mL] | MIC of Cefotaxime in combination with the compound (E. coli 250SJ1 (Tem7)) | MIC of Piperacillin in combination with the compound (E. coli 250SJ1 (Tem7)) [µg/mL] | MIC of Cefotaxime in combination with the compound [3] [µg/mL] | MIC of Piperacillin in combination with the compound [3] [µg/mL] | MIC of Cefotaxime in combination with the compound [4] [µg/mL] | MIC of Piperacillin in combination with the compound [4] [µg/mL] | further results
NC(=O)[C@@H]1CC[C@@H]2CN1C(=O)N2OS(=O)(=O)O (relative stereo) [Example 33, trans-7-oxo-6-(sulphooxy)-1,6-diazabicyclo[3.2.1]octane-2-carboxamide] | <=0.04 μg/ml | 1.2 | 0.6 | <=0.04 μg/ml | <=0.04 μg/ml | 1.2 | <=0.04 μg/ml | 0.3 | <=0.04 μg/ml | 0.6 | 2.5 | <=0.04 μg/ml | <=0.04 μg/ml | 1.2 | <=0.04 μg/ml | 0.6 | 20 | >40 | 20 | 10 | IC50 (β-lactamase P99): 330 nM; MIC of Cefotaxime in combination with the compound [5]: 2.5 µg/mL; MIC of Piperacillin in combination with the compound [5]: 1.2 µg/mL; MIC of Cefotaxime in combination with the compound (Serratia 301HT6): 0.08 µg/mL; MIC of Piperacillin in combination with the compound (Serratia 301HT6): 0.6 µg/mL
O=C(NCc1ccccc1)[C@H]1CC[C@@H]2CN1C(=O)N2OS(=O)(=O)[O-].[Na+] (relative stereo) [Example 34, sodium salt of trans-7-oxo-N-(phenylmethyl)-6-(sulphooxy)-1,6-diazabicyclo[3.2.1]octane-2-carboxamide] | 0.15 µg/mL | >40 | 10 | 0.6 µg/mL | 0.08 µg/mL | >40 | <=0.04 μg/ml | 5 | <=0.04 μg/ml | >40 | 40 | <=0.04 μg/ml | <=0.04 μg/ml | 20 | <=0.04 μg/ml | >40 | 20 | >40 | 20 | >40 | IC50 (β-lactamase TEM1): 27 nM; IC50 (β-lactamase P99; [6]): 32 nM; MIC of Cefotaxime in combination with the compound [5]: 1.2 µg/mL; MIC of Piperacillin in combination with the compound [5]: 0.6 µg/mL; MIC of Cefotaxime in combination with the compound (Serratia 301HT6): <=0.04 μg/ml; MIC of Piperacillin in combination with the compound (Serratia 301HT6): 1.2 µg/mL
O=C(NCc1ccccn1)[C@H]1CC[C@@H]2CN1C(=O)N2OS(=O)(=O)[O-].[Na+] (relative stereo) [Example 35, sodium salt of trans-7-oxo-N-(2-pyridinylmethyl)-6-(sulphooxy)-1,6-diazabicyclo[3.2.1]octane-2-carboxamide] | 0.15 µg/mL | 10 | 5 | 0.6 µg/mL | 0.08 µg/mL | 20 | <=0.04 μg/ml | 2.5 | <=0.04 μg/ml | 20 | 10 | <=0.04 μg/ml | <=0.04 μg/ml | 5 | <=0.04 μg/ml | 5 | 20 | >40 | 20 | >40 | IC50 (β-lactamase TEM1): 53 nM; IC50 (β-lactamase P99; [6]): 56 nM; MIC of Cefotaxime in combination with the compound [5]: 1.2 µg/mL; MIC of Piperacillin in combination with the compound [5]: 1.2 µg/mL; MIC of Cefotaxime in combination with the compound (Serratia 301HT6): <=0.04 μg/ml; MIC of Piperacillin in combination with the compound (Serratia 301HT6): 1.2 µg/mL
